Assay results reported in US20170037028A1 (BAYER PHARMA AKTIENGESELLSCHAFT, priority 2013, published 2017).
Like-named read-outs stand apart in the source and are kept apart here.

Target: T1, GLUT1 (Homo sapiens, UniProt P11166)
T1 sequence (P11166 1-492): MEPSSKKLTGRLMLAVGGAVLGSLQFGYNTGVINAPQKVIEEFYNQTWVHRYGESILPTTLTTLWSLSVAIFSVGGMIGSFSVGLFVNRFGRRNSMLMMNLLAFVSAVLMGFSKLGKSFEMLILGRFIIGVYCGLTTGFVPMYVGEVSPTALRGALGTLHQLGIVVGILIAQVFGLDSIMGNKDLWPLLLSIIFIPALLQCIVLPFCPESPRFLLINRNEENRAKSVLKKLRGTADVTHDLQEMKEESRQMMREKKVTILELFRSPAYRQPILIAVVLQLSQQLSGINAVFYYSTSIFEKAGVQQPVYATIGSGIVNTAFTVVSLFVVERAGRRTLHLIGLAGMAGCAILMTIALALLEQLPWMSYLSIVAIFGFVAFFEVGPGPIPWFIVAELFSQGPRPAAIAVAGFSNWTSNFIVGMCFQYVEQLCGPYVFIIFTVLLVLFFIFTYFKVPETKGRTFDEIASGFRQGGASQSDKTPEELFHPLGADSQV
Experiment: Indirect measurement of GLUT1 activity by quantification of intracellular ATP levels (glucose induced ATP increase)
Type: cell-based
Parameters: endogenous in cells; host or cells: DLD1 or CHO-K1
Settings: read-out: IC50 regarding glucose induced ATP increase (GLUT1 inhibition)
Procedure, shortened: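 DLD1 or CHO-K1 cells were starved overnight in glucose-free medium with 1% FCS, then combined with an oxidative phosphorylation inhibitor. GLUT1 activity was read as glucose-induced ATP increase, GLUT2 as fructose-induced. Intracellular ATP was quantified by CellTiter-Glo luminescence.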

SMILES | IC50 | IC50 (DLD1 cells, 0.1 mM glucose, 1 μM Rotenone, 15 min, CellTiter-Glo ATP readout, IC50 values standardized to cytochalasin B IC50 values)
Cc1c(NC(=O)c2cc(C(N)=O)nc3cc(F)ccc23)c(C(F)(F)F)nn1Cc1ccc(C#N)cn1 [Example 360, N^4-{1-[(5-cyanopyridin-2-yl)methyl]-5-methyl-3-(trifluoromethyl)-1H-pyrazol-4-yl}-7-fluoroquinoline-2,4-dicarboxamide] | 2 nM | 
Cc1c(NC(=O)c2cc(C(N)=O)nc3ccccc23)c(C(F)(F)F)nn1Cc1ccc(C#N)cn1 [Example 361, N^4-{1-[(5-cyanopyridin-2-yl)methyl]-5-methyl-3-(trifluoromethyl)-1H-pyrazol-4-yl}quinoline-2,4-dicarboxamide] | 4.4 nM | 
Cc1c(NC(=O)c2cc(C(F)(F)F)nc3ccc(Br)cc23)c(C(F)(F)F)nn1Cc1ccc(C#N)cn1 [Example 362, 6-bromo-N-{1-[(5-cyanopyridin-2-yl)methyl]-5-methyl-3-(trifluoromethyl)-1H-pyrazol-4-yl}-2-(trifluoromethyl)quinoline-4-carboxamide] | 5.5 nM | 
Cc1c(NC(=O)c2cc(C(N)=O)nc3cccc(F)c23)c(C(F)(F)F)nn1Cc1ccc(C#N)cn1 [Example 363, N^4-{1-[(5-cyanopyridin-2-yl)methyl]-5-methyl-3-(trifluoromethyl)-1H-pyrazol-4-yl}-5-fluoroquinoline-2,4-dicarboxamide] | 6 nM | 
Cc1c(NC(=O)c2cc(C(N)=O)nc3cc(F)c(F)cc23)c(C(F)(F)F)nn1Cc1ccc(C#N)cn1 [Example 364, N^4-{1-[(5-cyanopyridin-2-yl)methyl]-5-methyl-3-(trifluoromethyl)-1H-pyrazol-4-yl}-6,7-difluoroquinoline-2,4-dicarboxamide] | 6.6 nM | 
COc1cc(C(=O)Nc2c(C(F)(F)F)nn(Cc3ccc(C#N)cn3)c2C)c2ccccc2n1 [Example 365, N-{1-[(5-cyanopyridin-2-yl)methyl]-5-methyl-3-(trifluoromethyl)-1H-pyrazol-4-yl}-2-methoxyquinoline-4-carboxamide] | 26.6 nM | 
Cc1ccc2nc(C(N)=O)cc(C(=O)Nc3c(C(F)(F)F)nn(Cc4ccc(C#N)cc4)c3C)c2c1 [Example 366, N^4-[1-(4-cyanobenzyl)-5-methyl-3-(trifluoromethyl)-1H-pyrazol-4-yl]-6-methylquinoline-2,4-dicarboxamide] |  | 7 nM
COC(=O)c1ccc(Cn2nc(C(F)(F)F)c(NC(=O)c3cc(C(N)=O)nc4cc(F)ccc34)c2C)cc1 [Example 367, methyl 4-{[4-{[(2-carbamoyl-7-fluoroquinolin-4-yl)carbonyl]amino}-5-methyl-3-(trifluoromethyl)-1H-pyrazol-1-yl]methyl}benzoate] | 2.3 nM | 
Cc1c(NC(=O)c2cc(C(N)=O)nc3cc(F)ccc23)c(C(F)(F)F)nn1Cc1ccc(C(=O)O)cc1 [Example 368, 4-{[4-{[(2-carbamoyl-7-fluoroquinolin-4-yl)carbonyl]amino}-5-methyl-3-(trifluoromethyl)-1H-pyrazol-1-yl]methyl}benzoic acid] | 418 nM | 
Cc1c(NC(=O)c2cc(C(N)=O)nc3cc(F)ccc23)c(C(F)(F)F)nn1Cc1ccc(C(N)=O)cc1 [Example 369, N^4-[1-(4-carbamoylbenzyl)-5-methyl-3-(trifluoromethyl)-1H-pyrazol-4-yl]-7-fluoroquinoline-2,4-dicarboxamide] | 12.4 nM | 
CNC(=O)c1ccc(Cn2nc(C(F)(F)F)c(NC(=O)c3cc(C(N)=O)nc4cc(F)ccc34)c2C)cc1 [Example 370, 7-fluoro-N^4-{5-methyl-1-[4-(methylcarbamoyl)benzyl]-3-(trifluoromethyl)-1H-pyrazol-4-yl}quinoline-2,4-dicarboxamide] | 12.8 nM | 
Cc1c(NC(=O)c2cc(C(N)=O)nc3cc(F)ccc23)c(C(F)(F)F)nn1Cc1ccc(C(=O)N(C)C)cc1 [Example 371, N^4-{1-[4-(dimethylcarbamoyl)benzyl]-5-methyl-3-(trifluoromethyl)-H-pyrazol-4-yl}-7-fluoroquinoline-2,4-dicarboxamide] | 243 nM | 
Cc1c(NC(=O)c2cc(C(N)=O)nc3cc(F)ccc23)c(C(F)(F)F)nn1Cc1ccc(C(=O)N2CCC2)cc1 [Example 372, N^4-{1-[4-(azetidin-1-ylcarbonyl)benzyl]-5-methyl-3-(trifluoromethyl)-1H-pyrazol-4-yl}-7-fluoroquinoline-2,4-dicarboxamide] | 20 nM | 
COCCNC(=O)c1ccc(Cn2nc(C(F)(F)F)c(NC(=O)c3cc(C(N)=O)nc4cc(F)ccc34)c2C)cc1 [Example 373, 7-fluoro-N^4-[1-{4-[(2-methoxyethyl)carbamoyl]benzyl}-5-methyl-3-(trifluoromethyl)-1H-pyrazol-4-yl]quinoline-2,4-dicarboxamide] | 17.5 nM | 
Cc1c(NC(=O)c2cc(C(N)=O)nc3cc(F)ccc23)c(C(F)(F)F)nn1Cc1ccc(C(=O)NCCN(C)C)cc1 [Example 374, N^4-[1-(4-{[2-(dimethylamino)ethyl]carbamoyl}benzyl)-5-methyl-3-(trifluoromethyl)-1H-pyrazol-4-yl]-7-fluoroquinoline-2,4-dicarboxamide] | 895 nM | 
Cc1c(NC(=O)c2cc(C(N)=O)nc3cc(F)ccc23)c(C(F)(F)F)nn1Cc1ccc(C(=O)NCCO)cc1 [Example 375, 7-fluoro-N^4-[1-{4-[(2-hydroxyethyl)carbamoyl]benzyl}-5-methyl-3-(trifluoromethyl)-1H-pyrazol-4-yl]quinoline-2,4-dicarboxamide] | 123 nM | 
Cc1nn(Cc2ccc(C#N)cc2)c(C)c1NC(=O)c1cc(Br)nc2ccccc12 [Example 380, 2-bromo-N-[1-(4-cyanobenzyl)-3,5-dimethyl-1H-pyrazol-4-yl]quinoline-4-carboxamide] | 45.9 nM | 
CSc1cc(C(=O)Nc2c(C)nn(Cc3ccc(C#N)cc3)c2C)c2ccccc2n1 [Example 381, N-[1-(4-cyanobenzyl)-3,5-dimethyl-1H-pyrazol-4-yl]-2-(methylsulfanyl)quinoline-4-carboxamide] | 9 nM | 
CSc1cc(C(=O)Nc2c(C(F)(F)F)nn(Cc3ccc(C#N)cc3)c2C)c2ccccc2n1 [Example 382, N-[1-(4-cyanobenzyl)-5-methyl-3-(trifluoromethyl)-1H-pyrazol-4-yl]-2-(methylsulfanyl)quinoline-4-carboxamide] | 26.1 nM | 
Cc1c(NC(=O)c2cc(S(C)(=O)=O)nc3ccccc23)c(C(F)(F)F)nn1Cc1ccc(C#N)cc1 [Example 384, N-[1-(4-cyanobenzyl)-5-methyl-3-(trifluoromethyl)-1H-pyrazol-4-yl]-2-(methylsulfonyl)quinoline-4-carboxamide] | 3.6 nM | 
Cc1nn(Cc2ccc(C#N)cc2)c(C(F)(F)F)c1NC(=O)c1cc(C(N)=O)nc2cc(F)ccc12 [Example 389, N^4-[1-(4-cyanobenzyl)-3-methyl-5-(trifluoromethyl)-1H-pyrazol-4-yl]-7-fluoroquinoline-2,4-dicarboxamide] | 1.9 nM | 
Cc1nn(Cc2c(F)cc(C#N)cc2F)c(C)c1NC(=O)c1cc(C(N)=O)nc2cc(F)ccc12 [Example 390, N^4-[1-(4-cyano-2,6-difluorobenzyl)-3,5-dimethyl-1H-pyrazol-4-yl]-7-fluoroquinoline-2,4-dicarboxamide] | 5.5 nM | 
Cc1nn(Cc2c(F)cc(C#N)cc2F)c(C)c1NC(=O)c1cc(C(N)=O)nc2ccccc12 [Example 391, N^4-[1-(4-cyano-2,6-difluorobenzyl)-3,5-dimethyl-1H-pyrazol-4-yl]quinoline-2,4-dicarboxamide] | 7 nM | 
Cc1nn(Cc2c(F)cc(C#N)cc2F)c(C)c1NC(=O)c1cc(C(N)=O)nc2cc(F)c(Cl)cc12 [Example 392, 6-chloro-N^4-[1-(4-cyano-2,6-difluorobenzyl)-3,5-dimethyl-1H-pyrazol-4-yl]-7-fluoroquinoline-2,4-dicarboxamide] | 21.6 nM | 
Cc1nn(Cc2c(F)cc(C#N)cc2F)c(C)c1NC(=O)c1cc(C(N)=O)nc2cccc(F)c12 [Example 393, N^4-[1-(4-cyano-2,6-difluorobenzyl)-3,5-dimethyl-1H-pyrazol-4-yl]-5-fluoroquinoline-2,4-dicarboxamide] | 4.1 nM | 
Cc1nn(Cc2c(F)cc(C#N)cc2F)c(C)c1NC(=O)c1cc(C(N)=O)nc2ccc(Br)cc12 [Example 394, 6-bromo-N^4-[1-(4-cyano-2,6-difluorobenzyl)-3,5-dimethyl-1H-pyrazol-4-yl]quinoline-2,4-dicarboxamide] | 2.6 nM | 
Cc1c(NC(=O)c2cc(C(N)=O)nc3cc(F)ccc23)c(C(F)(F)F)nn1Cc1c(F)cc(C#N)cc1F [Example 395, N^4-[1-(4-cyano-2,6-difluorobenzyl)-5-methyl-3-(trifluoromethyl)-1H-pyrazol-4-yl]-7-fluoroquinoline-2,4-dicarboxamide] | 5.3 nM | 
Cc1c(NC(=O)c2cc(C(N)=O)nc3ccccc23)c(C(F)(F)F)nn1Cc1c(F)cc(C#N)cc1F [Example 396, N^4-[1-(4-cyano-2,6-difluorobenzyl)-5-methyl-3-(trifluoromethyl)-1H-pyrazol-4-yl]quinoline-2,4-dicarboxamide] | 15.9 nM | 
